IC50 data for 36 compounds are collected here from ChEMBL document CHEMBL4680094, “Insights of a Lead Optimization Study and Biological Evaluation of Novel 4-Hydroxytamoxifen Analogs as Estrogen-Related Receptor γ (ERRγ) Inverse Agonists” (J Med Chem, 2016).

A word on the IC50: it is the point on the concentration scale where inhibition reaches its midpoint.

Bounds are passed on as bounds.

Assay [1] concerns the target T1, Estrogen-related receptor gamma (Homo sapiens, UniProt P62508).
T1 sequence (P62508 whole entry): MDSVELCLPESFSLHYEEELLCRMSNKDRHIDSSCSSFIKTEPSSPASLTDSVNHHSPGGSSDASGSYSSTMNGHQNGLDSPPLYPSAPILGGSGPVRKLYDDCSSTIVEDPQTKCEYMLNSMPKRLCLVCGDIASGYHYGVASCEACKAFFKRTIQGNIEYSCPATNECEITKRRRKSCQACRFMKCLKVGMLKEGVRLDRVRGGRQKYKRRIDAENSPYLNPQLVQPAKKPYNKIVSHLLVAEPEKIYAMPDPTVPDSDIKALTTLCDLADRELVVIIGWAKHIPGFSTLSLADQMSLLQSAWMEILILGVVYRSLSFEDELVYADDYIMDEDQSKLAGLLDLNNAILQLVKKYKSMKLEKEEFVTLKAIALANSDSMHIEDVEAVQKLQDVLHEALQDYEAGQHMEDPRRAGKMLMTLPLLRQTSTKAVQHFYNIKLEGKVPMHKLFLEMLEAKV

The target in assay [2] is T2, Steroid hormone receptor ERR2 (Homo sapiens, UniProt O95718).
T2 sequence (O95718 whole entry): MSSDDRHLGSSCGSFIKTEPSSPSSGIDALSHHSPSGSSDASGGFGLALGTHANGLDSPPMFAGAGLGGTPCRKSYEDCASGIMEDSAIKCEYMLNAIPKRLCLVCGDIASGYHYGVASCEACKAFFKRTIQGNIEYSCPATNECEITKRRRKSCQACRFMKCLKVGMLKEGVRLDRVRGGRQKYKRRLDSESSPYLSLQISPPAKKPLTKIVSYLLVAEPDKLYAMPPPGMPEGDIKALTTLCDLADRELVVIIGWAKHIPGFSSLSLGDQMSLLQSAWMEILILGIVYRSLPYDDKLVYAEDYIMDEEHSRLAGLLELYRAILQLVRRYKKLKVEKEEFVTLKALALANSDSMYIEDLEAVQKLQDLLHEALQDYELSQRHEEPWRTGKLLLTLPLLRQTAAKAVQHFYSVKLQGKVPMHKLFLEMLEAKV
In words: Binding affinity to GST-tagged ERRbeta LBD (unknown origin) using fluorescein PGC1alpha as coactivator incubated for 1 hr by LanthaScreen TR-FRET co-regulator assay. Background: In TR-FRET formats the signal depends on donor and acceptor labels being close together.

In assay [3] the target is T3, Steroid hormone receptor ERR1 (Homo sapiens, UniProt P11474).
T3 sequence (P11474 whole entry): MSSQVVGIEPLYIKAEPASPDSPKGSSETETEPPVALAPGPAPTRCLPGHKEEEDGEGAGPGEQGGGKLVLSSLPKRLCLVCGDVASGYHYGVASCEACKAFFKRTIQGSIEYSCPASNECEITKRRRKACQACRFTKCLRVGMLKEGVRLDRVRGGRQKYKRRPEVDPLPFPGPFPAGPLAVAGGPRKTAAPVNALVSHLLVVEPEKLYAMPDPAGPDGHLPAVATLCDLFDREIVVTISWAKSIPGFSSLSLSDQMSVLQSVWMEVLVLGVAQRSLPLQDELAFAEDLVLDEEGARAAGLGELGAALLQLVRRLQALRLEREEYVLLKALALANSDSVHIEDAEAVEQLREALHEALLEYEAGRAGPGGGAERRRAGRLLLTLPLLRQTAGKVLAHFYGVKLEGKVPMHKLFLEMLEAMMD
In words: Binding affinity to GST-tagged ERRalpha LBD (unknown origin) using fluorescein PGC1alpha as coactivator incubated for 1 hr by LanthaScreen TR-FRET co-regulator assay.

For assay [4], the target named is T4, Estrogen receptor (Homo sapiens, UniProt P03372).
T4 sequence (P03372 whole entry): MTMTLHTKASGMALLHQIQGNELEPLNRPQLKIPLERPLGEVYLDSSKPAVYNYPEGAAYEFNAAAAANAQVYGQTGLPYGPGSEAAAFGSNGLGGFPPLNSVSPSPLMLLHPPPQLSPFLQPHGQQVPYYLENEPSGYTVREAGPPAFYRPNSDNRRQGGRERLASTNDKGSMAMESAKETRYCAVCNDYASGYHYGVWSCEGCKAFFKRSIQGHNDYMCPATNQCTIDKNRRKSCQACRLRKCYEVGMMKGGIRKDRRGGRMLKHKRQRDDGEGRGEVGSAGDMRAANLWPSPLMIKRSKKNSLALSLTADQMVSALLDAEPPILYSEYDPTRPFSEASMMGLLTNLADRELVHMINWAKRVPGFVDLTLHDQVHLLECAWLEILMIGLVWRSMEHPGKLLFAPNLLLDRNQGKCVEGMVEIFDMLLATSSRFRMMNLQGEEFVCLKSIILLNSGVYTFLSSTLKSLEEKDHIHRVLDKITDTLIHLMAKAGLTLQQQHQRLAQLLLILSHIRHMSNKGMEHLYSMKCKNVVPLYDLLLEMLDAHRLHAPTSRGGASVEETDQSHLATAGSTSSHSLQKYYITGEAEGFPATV
Put plainly: Binding affinity to GST-tagged ERalpha LBD (unknown origin) using fluorescein PGC1alpha as coactivator incubated for 1 hr by LanthaScreen TR-FRET co-regulator assay.

Consider `OCCC/C(=C(\c1ccc(O)cc1)c1ccc(OCCN2CCNCC2)cc1)c1ccccc1`, for which the half-inhibitory concentration (IC50) in assay [1] is 1040 nM. `CC(C)(C)OC(=O)N1CCC(n2cc(/C(=C(/CCCO)c3ccccc3)c3ccc(O)cc3)cn2)CC1` returned an IC50 in assay [1] of more than 10000 nM. As for `CN1CCC[C@H]1CCOc1ccc(/C(=C(/CCCO)c2ccccc2)c2ccc(O)cc2)cc1`, the values for the IC50 in assay [2], in assay [3] and in assay [4] were 8590 nM, more than 10000 nM and 724 nM, respectively.

For the compound `O=C(CN1CCCCC1)Nc1ccc(/C(=C(/CCCO)c2ccccc2)c2ccc(O)cc2)cc1`, half-maximal inhibition in assay [1] (IC50) required 2780 nM. On to `CN1CCN(Cc2ccc(/C(=C(/CCCO)c3ccccc3)c3ccc([N+](=O)[O-])cc3)cc2)CC1`, for which the IC50 in assay [1] was more than 10000 nM.

The compound `CN1CCN(Cc2ccc(/C(=C(/CCCO)c3ccccc3)c3ccc(O)cc3)cc2)CC1` returned a concentration for half-maximal inhibition (IC50) in assay [1] of 2340 nM. Still for that read-out and setting: next, `CN1CCN(C[Si](C)(C)c2ccc(/C(=C(/CCCO)c3ccccc3)c3ccc(O)cc3)cc2)CC1`: 1260 nM. With `C[Si](C)(CN1CCCCC1)c1ccc(/C(=C(/CCCO)c2ccccc2)c2ccc(O)cc2)cc1`, the IC50 is more than 10000 nM in assay [2], 248 nM in assay [1], more than 10000 nM in assay [3] and 4360 nM in assay [4]. In assay [1], `OCCC/C(=C(\c1ccc(O)cc1)c1ccc2c(c1)CCN2CCN1CCCC1)c1ccccc1` came in with an IC50 of 8020 nM. The same measure, in the same setting: next, `OCCC/C(=C(\c1ccc(O)cc1)c1ccc(NCCN2CCCCC2)cc1)c1ccccc1`: 1550 nM; `CN1C[C@@H]1CCCOc1ccc(/C(=C(/CCCO)c2ccccc2)c2ccc(Br)cc2)cc1` (stereo not given in full): 1660 nM.

`CN1CCC[C@@H]1CCOc1ccc(/C(=C(/CCCO)c2ccccc2)c2ccc(O)cc2)cc1`: the figures for the concentration for half-maximal inhibition (IC50) in assay [2], in assay [3] and in assay [4] were more than 10000 nM, more than 10000 nM and 784 nM, respectively. In turn, `CN1C[C@@H]1CCCOc1ccc(/C(=C(/CCCO)c2ccccc2)c2ccc(O)cc2)cc1` (stereo not given in full) had an IC50 in assay [1] of 1090 nM. For the compound `OCCC/C(=C(\c1ccc(O)cc1)c1ccc(OCCN2C[C@H]3C[C@H]3[C@H]2CO)cc1)c1ccccc1`, the IC50 in assay [3] is more than 10000 nM. On the same count and under the same terms, next, `OCCC/C(=C(\c1ccc(O)cc1)c1ccc(OCCN2CC3CC3C2)cc1)c1ccccc1` (stereo not given): more than 10000 nM. Regarding `OCCC/C(=C(\c1ccc(O)cc1)c1ccc2oc(CCN3CCCCC3)cc2c1)c1ccccc1`, the IC50 is more than 10000 nM in assay [2], 268 nM in assay [1], more than 10000 nM in assay [3] and 660 nM in assay [4].

On to `OCCC/C(=C(\c1ccc(O)cc1)c1ccc(OCCN2CCC[C@@H]2CO)cc1)c1ccccc1`, for which the IC50 in assay [2] and in assay [3] was more than 10000 nM in each case. `O=[N+]([O-])c1ccc(/C(=C(\CCCO)c2ccccc2)c2ccc(N3CCC4(CCNC4)C3)cc2)cc1` (stereo not given): in assay [1], the midpoint of inhibition, the IC50, lay at 8230 nM. In assay [1], `O=C(Nc1ccc(/C(=C(/CCCO)c2ccccc2)c2ccc(O)cc2)cc1)C1CCCN1` (stereo not given) had an IC50 of more than 10000 nM.

`C[Si](C)(CN1C[C@H]2CNC[C@H]2C1)c1ccc(/C(=C(/CCCO)c2ccccc2)c2ccc(O)cc2)cc1`: the IC50 in assay [1] came to 460 nM. `OCCC/C(=C(\c1ccc(Br)cc1)c1ccc(CN2CCCCC2)cc1)c1ccccc1`: in assay [1], the half-inhibitory concentration (IC50) was found to be 2300 nM. Still for that read-out and setting: next, `OCCC/C(=C(\c1ccc(Br)cc1)c1ccc(OCCN2CC2)cc1)c1ccccc1`: 1520 nM; `CN1CCN(CCOc2ccc(/C(=C(/CCCO)c3ccccc3)c3ccc(O)cc3)cc2)CC1`: 2200 nM. With `OCCC/C(=C(\c1ccc(O)cc1)c1ccc(OCCN2CCCC2)cc1)c1ccccc1`, the IC50 in assay [2] is more than 10000 nM; in assay [3] it was more than 10000 nM; in assay [4], 649 nM. Regarding `OCCC/C(=C(\c1ccc(O)cc1)c1ccc(OCCN2CCC3(CCNC3)C2)cc1)c1ccccc1` (stereo not given), the IC50 in assay [2] was more than 10000 nM; in assay [1] it was 326 nM; in assay [3] it was more than 10000 nM; in assay [4], 5600 nM. As to `Cc1ccc(/C(=C(\CCCO)c2ccccc2)c2ccc3oc(CCN4CCNCC4)cc3c2)cc1`, the IC50 in assay [1] is 2130 nM.

Consider `OCCC/C(=C(\c1ccc(O)cc1)c1ccc(OCCN2CC2)cc1)c1ccccc1`, for which the 50% inhibitory concentration (IC50) was 3720 nM in assay [2], 70 nM in assay [1] and more than 10000 nM in assay [3].

`CN1C[C@H]1CCCOc1ccc(/C(=C(/CCCO)c2ccccc2)c2ccc(O)cc2)cc1` (stereo not given in full) showed an IC50 in assay [1] of 784 nM.

Regarding `OCCC/C(=C(\c1ccc(O)cc1)c1ccc(OCCN2C[C@H]3CNC[C@H]3C2)cc1)c1ccccc1`, the half-maximal inhibitory concentration (IC50) in assay [2] is more than 10000 nM; in assay [1] it was 165 nM; in assay [3], more than 10000 nM; in assay [4], 407 nM. `C[Si](C)(CN1CCNCC1)c1ccc(/C(=C(/CCCO)c2ccccc2)c2ccc(O)cc2)cc1` gave an IC50 in assay [1] of 1280 nM.

For `CN(C)CCn1cc(-c2ccc(/C(=C(/CCCO)c3ccccc3)c3ccc(O)cc3)cc2)nn1`, in assay [1], the IC50 came out at 6300 nM.

`OCCC/C(=C(\c1ccc(O)cc1)c1ccc2c(ccn2CCN2CCCCC2)c1)c1ccccc1`: 3610 nM corresponded to half-maximal inhibition in assay [1] (IC50). On the same count and under the same terms, next, `OCCC/C(=C(\c1ccc(O)cc1)c1ccc(N2CCOCC2)cc1)c1ccccc1`: 2230 nM; `OCCC/C(=C(\c1ccc(O)cc1)c1ccc2oc(CCN3CCNCC3)cc2c1)c1ccccc1`: 894 nM; `O=C(CN1C[C@H]2CNC[C@H]2C1)Nc1ccc(/C(=C(/CCCO)c2ccccc2)c2ccc(O)cc2)cc1`: 7420 nM.

As to `C[Si](C)(CN1CCCC1)c1ccc(/C(=C(/CCCO)c2ccccc2)c2ccc(O)cc2)cc1`, the IC50 in assay [2] was more than 10000 nM; in assay [1] it was 813 nM; in assay [3] it was more than 10000 nM; in assay [4] it was more than 10000 nM.
